# Patent publication USRE32455E, “A-21978 antibiotics and process for their production” (priority 1985, dated 1987)
# Several values for one entry are separate records, joined by “and”; a condition that tells them apart may be missing. Identical values can stand only once.
# Legend:
# [1] = Electrometric titration in 66% aqueous dimethylformamide; assay type: physicochemical; details: 66% DMF; Na salt; factors: two determinations
# [2] = tested on: pathogenic organisms, particularly gram-positive bacteria; test: Inhibition of growth of pathogenic organisms; assay type: cell-based
# [3] = tested on: Staphylococcus aureus 3055; test: MIC, standard agar-dilution test; assay type: cell-based; details: Table XI, sodium salt
# [4] = tested on: Group D Streptococcus 282; test: MIC, standard agar-dilution test; assay type: cell-based; details: Table XI, sodium salt
# [5] = tested on: Streptococcus pyogenes C203; test: MIC, standard agar-dilution test; assay type: cell-based; details: Table XI, sodium salt
# [6] = tested on: Streptococcus pneumoniae Park I; test: MIC, standard agar-dilution test; assay type: cell-based; details: Table XI, sodium salt
# [7] = tested on: Viridans Streptococcus 9943; test: MIC, standard agar-dilution test; assay type: cell-based; details: Table XI, sodium salt
# [8] = tested on: Neisseria gonorrhoeae 111076-4; test: MIC, standard agar-dilution test; assay type: cell-based; details: Table XI, sodium salt
# [9] = tested on: Staphylococcus aureus 3055; test: MIC, standard broth-dilution test; assay type: cell-based; details: Table XII, sodium salt
# [10] = tested on: Group D Streptococcus 282; test: MIC, standard broth-dilution test; assay type: cell-based; details: Table XII, sodium salt
# [11] = tested on: Streptococcus pyogenes C203; test: MIC, standard broth-dilution test; assay type: cell-based; details: Table XII, sodium salt
# [12] = tested on: Streptococcus pneumoniae Park I; test: MIC, standard broth-dilution test; assay type: cell-based; details: Table XII, sodium salt
# [13] = tested on: Viridans Streptococcus 9943; test: MIC, standard broth-dilution test; assay type: cell-based; details: Table XII, sodium salt
# [14] = tested on: Actinomyces isaelii; test: MIC anaerobic bacteria, standard agar-dilution test; assay type: cell-based
# [15] = tested on: Clostridium perfringens; assay type: cell-based; details: anaerobic, agar-dilution
# [16] = tested on: Clostridium septicum; test: MIC anaerobic bacteria, standard agar-dilution test; assay type: cell-based
# [17] = tested on: Eubacterium aerofaciens; test: as above; assay type: cell-based
# [18] = tested on: Peptococcus asaccharolyticus; test: as above; assay type: cell-based
# [19] = tested on: Peptococcus prevoti; test: as above; assay type: cell-based
# [20] = tested on: Peptostreptococcus anaerobius; test: as above; assay type: cell-based
# [21] = tested on: Peptostreptococcus intermedius; test: as above; assay type: cell-based
# [22] = tested on: Propionibacterium acnes; test: as above; assay type: cell-based
# [23] = tested on: Bacteroides fragilis; test: as above; assay type: cell-based
# [24] = tested on: Fusobacterium symbiosum; test: as above; assay type: cell-based
# [25] = tested on: Fusobacterium necrophorum; test: as above; assay type: cell-based
# [26] = tested on: Staphylococcus aureus; test: MIC, agar dilution (Table XV); assay type: cell-based
# Description: ^1 MIC = minimum inhibitory concentration (μg/ml), agar dilution
# [27] = tested on: Streptococcus pyogenes; test: MIC, agar dilution (Table XV); assay type: cell-based
# [28] = tested on: Streptococcus pneumoniae; test: MIC, agar dilution (Table XV); assay type: cell-based
# [29] = tested on: Staphylococcus aureus; test: Experimental bacterial infection in mice, ED50; assay type: in vivo; details: two doses, subcutaneous administration
# Description: (§1) When two doses of test compound were administered to mice in illustrative infections, the activity observed was measured as an ED50 value [effective dose in mg/kg to protect fifty percent of the test animals: See Warren Wick, et al., J. Bacteriol. 81, 233-235 (1961)].
# [30] = tested on: Streptococcus pneumoniae; test: Experimental bacterial infection in mice, ED50; assay type: in vivo; details: two doses, subcutaneous administration
# Description: as §1
# [31] = tested on: Streptococcus pyogenes; test: Experimental bacterial infection in mice, ED50; assay type: in vivo; details: two doses
# Description: as §1
# [32] = tested on: Streptococcus faecalis (Guze); test: In vitro susceptibility (MIC) of the S. faecalis Guze strain; assay type: cell-based; details: Table XVI
# [33] = tested on: Streptococcus faecalis (Guze); test: Streptococcus faecalis descending rat pyelonephritis test; assay type: in vivo, rat (female albino, Cox-Wistar); details: 1.0 mg/kg × 7, subcutaneous
# Description: In this test, the bacterial culture used was Streptococcus faecalis (Guze). The culture was grown on Trypticase soy agar (BBL), suspended in brain heart infusion broth (BBL), divided into 0.2-ml portions, and frozen in liquid nitrogen. Bacterial suspensions for rat inoculations were prepared daily by seeding a 50-ml flask of trypticase soy broth (BBL) from a frozen ampoule and growing the culture overnight at 37° C. on a shaker. The S. faecalis culture was diluted to 5×10^8 colony-forming units per ml. Test compounds were injected subcutaneously once daily for seven days. All compounds were suspended in 0.125% carboxymethylcellulose.
# The experimental rat infections were accomplished by the following procedure. Female, random-bred albino rats (Cox-Wistar) weighing 190 to 210 g were anesthetized by intraperitoneal injection of 12 mg of sodium methohexital supplemented as necessary. The experimental pyelonephritis model was based on the studies of Guze and Beeson in which the left ureter was occluded for 20 min, followed by injection of 0.5 ml of the test organism in the femoral vein. Antimicrobial therapy was commenced 4 to 5 hrs postinfection. Four hours after the last treatment the rats were sacrificed, and the left kidney was removed and homogenized in a Duall grinder containing 9 ml of physiological saline. This represented a 10^-1 dilution of the kidney tissue. Additional 10-fold dilutions in saline were based on the anticipated bacterial cells present in the tissue homogenate. Finally, duplicate agar pour plates were made from several of these dilutions, and the plates were incubated overnight at 37° C. The therapeutic results were expressed in two ways: (i) the percentage of rats with kidney counts of less than 10^2 per g of kidney tissue, referred to as "cures," and (ii) the percentage of rats with at least a 4-log10 reduction in bacterial titer compared with infected control kidneys. Control rats were treated with 0.125% carboxymethylcellulose only. Viable cell counts in kidney tissue from control rats with S. faecalis ranged from 1.2×10^8 to 4.6×10^8 per g of homogenized tissue.
# [34] = Toxicity (LD50) in mouse; assay type: in vivo
# [35] = Toxicity (LD50) in rat; assay type: in vivo; details: IV
# [36] = tested on: Micrococcus luteus; test: Bioassay, paper-disc agar-diffusion; details: Na salts; Table VIII
Compound,pKa (first group) [1],growth inhibition [2],MIC [3] [µg/mL],MIC [4] [µg/mL],MIC [5] [µg/mL],MIC [6] [µg/mL],MIC [7] [µg/mL],MIC [8] [µg/mL],MIC [9] [µg/mL],MIC [10] [µg/mL],MIC [11] [µg/mL],MIC [12] [µg/mL],MIC [13] [µg/mL],MIC [14] [µg/mL],MIC [15] [µg/mL],MIC [16] [µg/mL],MIC [17] [µg/mL],MIC [18] [µg/mL],MIC [19] [µg/mL],MIC [20] [µg/mL],further results
CC(C)CCCCCCCCC(=O)N[C@@H](Cc1c[nH]c2ccccc12)C(=O)N[C@@H](CC(N)=O)C(=O)N[C@@H](CC(=O)O)C(=O)N[C@@H]1C(=O)NCC(=O)N[C@@H](CCCN)C(=O)N[C@@H](CC(=O)O)C(=O)N[C@H](C)C(=O)N[C@@H](CC(=O)O)C(=O)NCC(=O)N[C@H](CO)C(=O)N[C@@H]([C@H](C)CC(=O)O)C(=O)N[C@@H](CC(=O)c2ccccc2N)C(=O)O[C@@H]1C [Factor C2],5.8 and 5.93,"inhibit the growth of certain pathogenic organisms, particularly gram-positive bacteria",0.13,0.25,0.13,0.25,1.0,4.0,0.5,1.0,0.25,1.0,16.0,1.0,8,1.0,8,2,1.0,1.0,pKa (second group) [1]: 7.6 and 7.63; MIC [21]: 1.0 µg/mL; MIC [22]: 2 µg/mL; MIC [23]: > 128 µg/mL; MIC [24]: > 128 µg/mL; MIC [25]: 64 µg/mL; MIC [26]: 0.13 µg/mL; MIC [27]: 0.13 µg/mL; MIC [28]: 0.13 µg/mL; ED50 [29]: 0.16 mg/kg; ED50 [30]: 0.14 mg/kg; ED50 [31]: 0.032 mg/kg; ED50 ([31]; oral administration): 59 mg/kg; MIC [32]: 0.25 µg/mL; Percent of Rats Cured [33]: 89%; Percent of Rats with a 4-Log Titer Decrease [33]: 100%; LD50 ([34]; IV): 150 to 250 mg/kg; LD50 ([34]; SC): 175 mg/kg; LD50 [35]: 204 ± 17 mg/kg; Bioassay (Micrococcus luteus) [36]: 1390 units/mg
CCC(C)CCCCCCC(=O)N[C@@H](Cc1c[nH]c2ccccc12)C(=O)NC(CC(N)=O)C(=O)N[C@@H](CC(=O)O)C(=O)N[C@@H]1C(=O)NCC(=O)N[C@@H](CCCN)C(=O)N[C@@H](CC(=O)O)C(=O)N[C@H](C)C(=O)N[C@@H](CC(=O)O)C(=O)NCC(=O)N[C@H](CO)C(=O)N[C@@H]([C@H](C)CC(=O)O)C(=O)N[C@@H](CC(=O)c2ccccc2N)C(=O)O[C@@H]1C (stereo in doubt) [Factor C1],5.7 and 5.9,"inhibit the growth of certain pathogenic organisms, particularly gram-positive bacteria",0.5,1.0,0.13,0.13,0.5,16.0,1.0,2.0,0.5,2.0,32.0,4,16,4,16,4,2,2,MIC [21]: 4 µg/mL; MIC [22]: 8 µg/mL; MIC [23]: > 128 µg/mL; MIC [24]: > 128 µg/mL; MIC [25]: 64 µg/mL; MIC [26]: 0.5 µg/mL; MIC [27]: 0.13 µg/mL; MIC [28]: 0.13 µg/mL; ED50 [29]: 0.22 mg/kg; ED50 [30]: 0.3 mg/kg; ED50 [31]: 0.064 mg/kg; ED50 ([31]; oral administration): 93 mg/kg; MIC [32]: 1.0 µg/mL; Percent of Rats Cured [33]: 50%; Percent of Rats with a 4-Log Titer Decrease [33]: 50%; LD50 ([34]; IV): > 250 mg/kg; LD50 ([34]; SC): > 365 mg/kg; LD50 [35]: 479 ± 32 mg/kg; Bioassay (Micrococcus luteus) [36]: 1663 units/mg
